Article PMC9743148 (Annals of oncology : official journal of the European …, 2020)
Entries after “also recorded” stand apart in the source; their conditions may differ. Like-named read-outs stand apart in the source and are kept apart here.

Experiments:
[1] = test system: patients with advanced solid tumors; assay: Dose-limiting toxicity, MTD and RP2D determination; assay type: in vivo, human
[2] = for T1/2 / Tmax: 20 mg q.d.
[3] = Dose-proportionality power regression of PK parameters; assay type: in vivo, human; conditions: 8–200-mg dose range t.i.w.
clinical = conditions: human, plasma, oral; for AUC(0-inf): AUC0–inf; for AUC(0-t): AUC0–last
[4] = 4 mg, 4 mg q.d., cycle 1 Day 1, mean
[5] = 4 mg, 4 mg q.d., cycle 1 Day 21, mean
[6] = 8 mg, 8 mg q.d., cycle 1 Day 1, mean
[7] = 8 mg, 8 mg t.i.w., cycle 1 Day 1, mean
[8] = 8 mg, 8 mg q.d., cycle 1 Day 21, mean
[9] = 8 mg, 8 mg t.i.w., cycle 1 Last Wednesday, mean
[10] = 16 mg, 16 mg q.d., cycle 1 Day 1, mean
[11] = 16 mg, 16 mg t.i.w., cycle 1 Day 1, mean
[12] = 16 mg, 16 mg q.d., cycle 1 Day 21, mean
[13] = 20 mg, 20 mg q.d., cycle 1 Day 1, mean
[14] = 20 mg, 20 mg q.d., cycle 1 Day 21, mean
[15] = 24 mg, 24 mg q.d., cycle 1 Day 1, mean
[16] = 24 mg, 24 mg t.i.w., cycle 1 Day 1, mean
[17] = 24 mg, 24 mg q.d., cycle 1 Day 21, mean
[18] = 36 mg, 36 mg t.i.w., cycle 1 Day 1, mean
[19] = 56 mg, 56 mg t.i.w., cycle 1 Day 1, mean
[20] = 80 mg, 80 mg t.i.w., cycle 1 Day 1, mean
[21] = 120 mg, 120 mg t.i.w., cycle 1 Day 1, mean
[22] = 160 mg, 160 mg t.i.w., cycle 1 Day 1, mean

C=CC(=O)N1CC[C@H](n2nc(C#Cc3cc(OC)cc(OC)c3)c3c(N)ncnc32)C1 [futibatinib]
Dose-limiting toxicities ([1]; 4, 8, 16, or 20 mg q.d.): No DLTs were observed | Recommended phase II dose (RP2D) ([1]; human, in vivo, oral, 21 days): 20 mg q.d. | Dose-limiting toxicities ([1]; other t.i.w. cohorts including 200 mg): no DLTs were reported | Maximum tolerated dose (MTD) ([1]; q.d. schedule): 20 mg q.d. | Maximum tolerated dose (MTD) ([1]; t.i.w. schedule, up to 200 mg): no MTD was defined; also recorded: not defined | T1/2 ([2]; cycle 1 Day 1, mean): 2.94 h | Tmax ([2]; cycle 1 Day 1, median): 1.92 h | T1/2 ([2]; cycle 1 Day 21, mean): 3.44 h | Tmax ([2]; cycle 1 Day 21, median): 3.52 h | Accumulation with repeated doses ([2]; both schedules): no significant accumulation | Urinary excretion of futibatinib ([2]; urine): lower than 0.01 % of the dose | Dose proportionality of Cmax [3]: less than a dose-proportional manner | AUC(0-inf) (clinical; [4]): 117 ng·h/mL | AUC(0-t) (clinical; [4]): 114 ng·h/mL | AUC(0-t) (clinical; [5]): 134 ng·h/mL | Cmax (clinical; [4]): 33.1 ng/mL | Cmax (clinical; [5]): 52.5 ng/mL | half-life (clinical; 4 mg, T1/2, 4 mg q.d., cycle 1 Day 1, mean): 1.75 h | half-life (clinical; 4 mg, T1/2, 4 mg q.d., cycle 1 Day 21, mean): 1.63 h | Tmax (clinical; 4 mg, 4 mg q.d., cycle 1 Day 1, median): 0.96 h | Tmax (clinical; 4 mg, 4 mg q.d., cycle 1 Day 21, median): 1.08 h | AUC(0-inf) (clinical; [6]): 524 ng·h/mL | AUC(0-inf) (clinical; [7]): 315 ng·h/mL | AUC(0-t) (clinical; [6]): 666 ng·h/mL | AUC(0-t) (clinical; [8]): 550 ng·h/mL | AUC(0-t) (clinical; [7]): 304 ng·h/mL | AUC(0-t) (clinical; [9]): 472 ng·h/mL | Cmax (clinical; [6]): 169 ng/mL | Cmax (clinical; [8]): 98.2 ng/mL | Cmax (clinical; [7]): 85.5 ng/mL | Cmax (clinical; [9]): 106 ng/mL | half-life (clinical; 8 mg, T1/2, 8 mg q.d., cycle 1 Day 1, mean): 2.26 h | half-life (clinical; 8 mg, T1/2, 8 mg q.d., cycle 1 Day 21, mean): 2.75 h | half-life (clinical; 8 mg, T1/2, 8 mg t.i.w., cycle 1 Day 1, mean): 2.08 h | half-life (clinical; 8 mg, T1/2, 8 mg t.i.w., cycle 1 Last Wednesday, mean): 2.01 h | Tmax (clinical; 8 mg, 8 mg q.d., cycle 1 Day 1, median): 2 h | Tmax (clinical; 8 mg, 8 mg q.d., cycle 1 Day 21, median): 2 h | Tmax (clinical; 8 mg, 8 mg t.i.w., cycle 1 Day 1, median): 1.04 h | AUC(0-inf) (clinical; [10]): 549 ng·h/mL | AUC(0-inf) (clinical; [11]): 744 ng·h/mL | AUC(0-t) (clinical; [10]): 536 ng·h/mL | AUC(0-t) (clinical; [12]): 737 ng·h/mL | AUC(0-t) (clinical; [11]): 736 ng·h/mL | Cmax (clinical; [10]): 148 ng/mL | Cmax (clinical; [12]): 172 ng/mL | Cmax (clinical; [11]): 207 ng/mL | Cmax (clinical; 16 mg, 16 mg t.i.w., cycle 1 Last Wednesday, mean): 213 ng/mL | half-life (clinical; 16 mg, T1/2, 16 mg q.d., cycle 1 Day 1, mean): 2.73 h | half-life (clinical; 16 mg, T1/2, 16 mg q.d., cycle 1 Day 21, mean): 2.53 h | half-life (clinical; 16 mg, T1/2, 16 mg t.i.w., cycle 1 Day 1, mean): 2.11 h | half-life (clinical; 16 mg, T1/2, 16 mg t.i.w., cycle 1 Last Wednesday, mean): 2.75 h | Tmax (clinical; 16 mg, 16 mg q.d., cycle 1 Day 1, median): 2 h | Tmax (clinical; 16 mg, 16 mg q.d., cycle 1 Day 21, median): 2.07 h | Tmax (clinical; 16 mg, 16 mg t.i.w., cycle 1 Day 1, median): 1 h | Tmax (clinical; 16 mg, 16 mg t.i.w., cycle 1 Last Wednesday, median): 1 h | AUC(0-inf) (clinical; [13]): 1300 ng·h/mL | AUC(0-t) (clinical; [13]): 1190 ng·h/mL | AUC(0-t) (clinical; [14]): 1180 ng·h/mL | Cmax (clinical; [13]): 257 ng/mL | Cmax (clinical; [14]): 171 ng/mL | half-life (clinical; 20 mg, T1/2, 20 mg q.d., cycle 1 Day 1, mean): ~3 h | half-life (clinical; 20 mg, T1/2, 20 mg q.d., cycle 1 Day 21, mean): ~3 h | AUC(0-inf) (clinical; [15]): 1270 ng·h/mL | AUC(0-inf) (clinical; [16]): 2200 ng·h/mL | AUC(0-t) (clinical; [15]): 1220 ng·h/mL | AUC(0-t) (clinical; [17]): 1420 ng·h/mL | AUC(0-t) (clinical; [16]): 1790 ng·h/mL | Cmax (clinical; [15]): 246 ng/mL | Cmax (clinical; [17]): 194 ng/mL | Cmax (clinical; [16]): 258 ng/mL | Cmax (clinical; 24 mg, 24 mg t.i.w., cycle 1 Last Wednesday, mean): 361 ng/mL | half-life (clinical; 24 mg, T1/2, 24 mg q.d., cycle 1 Day 1, mean): 3.13 h | half-life (clinical; 24 mg, T1/2, 24 mg q.d., cycle 1 Day 21, mean): 3.12 h | half-life (clinical; 24 mg, T1/2, 24 mg t.i.w., cycle 1 Day 1, mean): 3.52 h | half-life (clinical; 24 mg, T1/2, 24 mg t.i.w., cycle 1 Last Wednesday, mean): 5.99 h | Tmax (clinical; 24 mg, 24 mg q.d., cycle 1 Day 1, median): 1.98 h | Tmax (clinical; 24 mg, 24 mg q.d., cycle 1 Day 21, median): 2 h | Tmax (clinical; 24 mg, 24 mg t.i.w., cycle 1 Day 1, median): 3 h | Tmax (clinical; 24 mg, 24 mg t.i.w., cycle 1 Last Wednesday, median): 1.05 h | AUC(0-inf) (clinical; [18]): 2680 ng·h/mL | AUC(0-t) (clinical; [18]): 2670 ng·h/mL | Cmax (clinical; [18]): 556 ng/mL | Cmax (clinical; 36 mg, 36 mg t.i.w., cycle 1 Last Wednesday, mean): 736 ng/mL | half-life (clinical; 36 mg, T1/2, 36 mg t.i.w., cycle 1 Day 1, mean): 4.84 h | half-life (clinical; 36 mg, T1/2, 36 mg t.i.w., cycle 1 Last Wednesday, mean): 6.57 h | Tmax (clinical; 36 mg, 36 mg t.i.w., cycle 1 Day 1, median): 2 h | Tmax (clinical; 36 mg, 36 mg t.i.w., cycle 1 Last Wednesday, median): 2.56 h | AUC(0-inf) (clinical; [19]): 3300 ng·h/mL | AUC(0-t) (clinical; [19]): 3290 ng·h/mL | Cmax (clinical; [19]): 695 ng/mL | Cmax (clinical; 56 mg, 56 mg t.i.w., cycle 1 Last Wednesday, mean): 930 ng/mL | half-life (clinical; 56 mg, T1/2, 56 mg t.i.w., cycle 1 Day 1, mean): 5.97 h | half-life (clinical; 56 mg, T1/2, 56 mg t.i.w., cycle 1 Last Wednesday, mean): 6.24 h | Tmax (clinical; 56 mg, 56 mg t.i.w., cycle 1 Day 1, median): 3.08 h | Tmax (clinical; 56 mg, 56 mg t.i.w., cycle 1 Last Wednesday, median): 2 h | AUC(0-inf) (clinical; [20]): 9560 ng·h/mL | AUC(0-t) (clinical; [20]): 7470 ng·h/mL | Cmax (clinical; [20]): 964 ng/mL | Cmax (clinical; 80 mg, 80 mg t.i.w., cycle 1 Last Wednesday, mean): 757 ng/mL | half-life (clinical; 80 mg, T1/2, 80 mg t.i.w., cycle 1 Day 1, mean): 4.77 h | half-life (clinical; 80 mg, T1/2, 80 mg t.i.w., cycle 1 Last Wednesday, mean): 5.28 h | Tmax (clinical; 80 mg, 80 mg t.i.w., cycle 1 Last Wednesday, median): 3 h | AUC(0-inf) (clinical; [21]): 5310 ng·h/mL | AUC(0-t) (clinical; [21]): 6640 ng·h/mL | Cmax (clinical; [21]): 713 ng/mL | Cmax (clinical; 120 mg, 120 mg t.i.w., cycle 1 Last Wednesday, mean): 910 ng/mL | half-life (clinical; 120 mg, T1/2, 120 mg t.i.w., cycle 1 Day 1, mean): 6.18 h | half-life (clinical; 120 mg, T1/2, 120 mg t.i.w., cycle 1 Last Wednesday, mean): 10.6 h | Tmax (clinical; 120 mg, 120 mg t.i.w., cycle 1 Day 1, median): 3.04 h | Tmax (clinical; 120 mg, 120 mg t.i.w., cycle 1 Last Wednesday, median): 3.17 h | AUC(0-t) (clinical; [22]): 7980 ng·h/mL | Cmax (clinical; [22]): 819 ng/mL | Cmax (clinical; 160 mg, 160 mg t.i.w., cycle 1 Last Wednesday, mean): 863 ng/mL | half-life (clinical; 160 mg, T1/2, 160 mg t.i.w., cycle 1 Day 1, mean): 8.75 h | half-life (clinical; 160 mg, T1/2, 160 mg t.i.w., cycle 1 Last Wednesday, mean): 3.99 h | Tmax (clinical; 160 mg, 160 mg t.i.w., cycle 1 Day 1, median): 2.52 h | Tmax (clinical; 160 mg, 160 mg t.i.w., cycle 1 Last Wednesday, median): 5.57 h | Cmax (clinical; 200 mg, 200 mg t.i.w., cycle 1 Day 1, mean): 1290 ng/mL | Cmax (clinical; 200 mg, 200 mg t.i.w., cycle 1 Last Wednesday, n 1): 845 ng/mL | half-life (clinical; 200 mg, T1/2, 200 mg t.i.w., cycle 1 Day 1, mean): 9.55 h | Tmax (clinical; 200 mg, 200 mg t.i.w., cycle 1 Day 1, median): 2 h | Patients with CCA experiencing PR or SD (advanced solid tumors; 18 of 24 patients with cholangiocarcinoma): 75% | Best overall response of confirmed partial response (PR) (advanced solid tumors; across cohorts (n = 86)): five | Responses lasting >6 months (advanced solid tumors; five responders): three | Responses occurring within 3 months of initiating futibatinib (advanced solid tumors; five responders): Four of five
